The test concerns the target LRRK2 G2019S (Homo sapiens, UniProt Q5S007, G2019S). The experiment in a line: LRRK2 G2019S Km ATP LanthaScreen assay. Type of test: biochemical. The conditions noted are these: read-out: LRRK2 pIC50 (converted). For orientation: In TR-FRET formats the signal depends on donor and acceptor labels being close together.

Molecules are shown by their SMILES.

Chain of LRRK2 G2019S (Q5S007 whole entry G2019S): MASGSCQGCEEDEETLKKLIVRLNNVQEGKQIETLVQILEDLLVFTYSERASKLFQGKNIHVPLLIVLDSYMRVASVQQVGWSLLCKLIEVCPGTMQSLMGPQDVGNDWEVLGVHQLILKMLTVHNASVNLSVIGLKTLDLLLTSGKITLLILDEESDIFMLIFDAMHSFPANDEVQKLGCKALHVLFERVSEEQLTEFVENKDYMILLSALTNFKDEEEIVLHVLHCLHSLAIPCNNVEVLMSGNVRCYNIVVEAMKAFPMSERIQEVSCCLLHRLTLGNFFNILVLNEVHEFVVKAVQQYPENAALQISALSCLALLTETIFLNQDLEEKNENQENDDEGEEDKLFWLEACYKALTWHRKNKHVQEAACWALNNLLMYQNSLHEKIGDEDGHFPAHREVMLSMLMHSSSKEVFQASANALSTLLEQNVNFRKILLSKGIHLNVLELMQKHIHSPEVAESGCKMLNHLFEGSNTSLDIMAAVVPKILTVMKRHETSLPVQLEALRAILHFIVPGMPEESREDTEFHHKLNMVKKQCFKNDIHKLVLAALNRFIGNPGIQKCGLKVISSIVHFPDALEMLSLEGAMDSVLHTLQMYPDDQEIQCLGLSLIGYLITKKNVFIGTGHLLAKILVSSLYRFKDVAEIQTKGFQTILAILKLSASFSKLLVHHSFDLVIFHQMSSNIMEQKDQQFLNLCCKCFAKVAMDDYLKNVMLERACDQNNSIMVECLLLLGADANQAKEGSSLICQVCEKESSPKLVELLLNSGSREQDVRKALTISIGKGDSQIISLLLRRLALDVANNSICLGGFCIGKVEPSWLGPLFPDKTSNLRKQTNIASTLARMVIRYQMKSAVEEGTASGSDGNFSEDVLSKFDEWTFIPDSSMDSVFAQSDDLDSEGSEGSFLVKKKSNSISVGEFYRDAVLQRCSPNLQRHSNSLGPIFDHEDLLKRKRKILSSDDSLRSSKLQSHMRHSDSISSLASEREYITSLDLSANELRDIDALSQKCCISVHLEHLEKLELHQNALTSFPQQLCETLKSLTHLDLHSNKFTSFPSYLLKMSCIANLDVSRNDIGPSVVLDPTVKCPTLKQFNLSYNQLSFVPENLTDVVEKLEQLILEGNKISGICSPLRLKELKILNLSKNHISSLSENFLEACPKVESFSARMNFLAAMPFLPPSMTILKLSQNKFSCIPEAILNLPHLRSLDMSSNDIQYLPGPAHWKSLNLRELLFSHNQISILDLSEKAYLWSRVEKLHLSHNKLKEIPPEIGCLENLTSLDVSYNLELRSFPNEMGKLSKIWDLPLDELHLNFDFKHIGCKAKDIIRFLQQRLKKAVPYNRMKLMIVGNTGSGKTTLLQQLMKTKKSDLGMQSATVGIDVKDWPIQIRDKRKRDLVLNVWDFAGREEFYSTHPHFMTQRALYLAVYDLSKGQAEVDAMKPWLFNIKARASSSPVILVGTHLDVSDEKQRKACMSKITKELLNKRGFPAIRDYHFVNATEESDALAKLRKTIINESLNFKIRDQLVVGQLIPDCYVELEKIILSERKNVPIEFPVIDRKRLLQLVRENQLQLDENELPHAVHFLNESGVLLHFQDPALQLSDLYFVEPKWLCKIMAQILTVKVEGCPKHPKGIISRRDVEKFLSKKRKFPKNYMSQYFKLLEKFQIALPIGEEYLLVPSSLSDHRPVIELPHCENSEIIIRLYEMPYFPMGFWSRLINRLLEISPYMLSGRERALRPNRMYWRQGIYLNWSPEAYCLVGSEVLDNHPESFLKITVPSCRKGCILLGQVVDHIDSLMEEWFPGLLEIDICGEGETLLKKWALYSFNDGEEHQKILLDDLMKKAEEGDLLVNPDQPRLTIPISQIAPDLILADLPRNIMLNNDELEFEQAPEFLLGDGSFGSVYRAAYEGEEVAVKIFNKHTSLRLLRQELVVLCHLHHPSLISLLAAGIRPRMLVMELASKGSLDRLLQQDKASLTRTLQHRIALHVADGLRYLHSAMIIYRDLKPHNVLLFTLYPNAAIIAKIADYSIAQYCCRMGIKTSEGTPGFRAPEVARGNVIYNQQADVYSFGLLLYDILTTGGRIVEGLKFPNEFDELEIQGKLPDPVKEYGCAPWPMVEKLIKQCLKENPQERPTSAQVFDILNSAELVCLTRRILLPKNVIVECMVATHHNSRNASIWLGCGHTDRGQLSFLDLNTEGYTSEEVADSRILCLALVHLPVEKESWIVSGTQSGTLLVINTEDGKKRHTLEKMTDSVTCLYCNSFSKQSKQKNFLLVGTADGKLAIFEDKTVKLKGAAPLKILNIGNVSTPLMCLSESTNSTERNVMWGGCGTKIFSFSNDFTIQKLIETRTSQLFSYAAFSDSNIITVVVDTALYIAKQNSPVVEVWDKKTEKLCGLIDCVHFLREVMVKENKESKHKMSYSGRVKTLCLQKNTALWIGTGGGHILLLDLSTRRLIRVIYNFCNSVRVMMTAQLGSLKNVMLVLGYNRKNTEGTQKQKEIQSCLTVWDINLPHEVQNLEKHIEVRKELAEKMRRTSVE

Regarding `CC1(C)CC(C(=O)Nc2cc3cc(C4CCN(C5(C)COCC5F)CC4)c(Cl)cc3cn2)CCO1` (single isomer, unassigned) [Ex-6.39, N-(7-chloro-6-(1-(4-fluoro-3-methyltetrahydrofuran-3-yl)piperidin-4-yl)isoquinolin-3-yl)-2,2-dimethyltetrahydro-2H-pyran-4-carboxamide], the IC50 was 89.1 nM.
As to `Cc1cc2cnc(NC(=O)C3CC3C(F)F)cc2cc1C1CCN(C2(C)COCC2O)CC1` (stereo not shown) [Ex-2.55], the IC50 was 3.98 nM.
With `COC1COCC1N1CCC(c2cc3cc(NC(=O)C4CC45CCOCC5)ncc3cc2Cl)CC1` (single isomer, unassigned) [Ex-6.53, N-(7-chloro-6-(1-(4-methoxytetrahydrofuran-3-yl)piperidin-4-yl)isoquinolin-3-yl)-6-oxaspiro[2.5]octane-1-carboxamide], the IC50 was 3.39 nM.
To `CCOC1CC2(C1)CC2C(=O)Nc1cc2cc(C3CCN(C4(C)COCC4O)CC3)c(Cl)cc2cn1` (single isomer, unassigned) [Ex-4.31, N-(7-chloro-6-(1-(4-hydroxy-3-methyltetrahydrofuran-3-yl)piperidin-4-yl)isoquinolin-3-yl)-5-ethoxyspiro[2.3]hexane-1-carboxamide] belongs 5.62 nM; to `Cn1cc(C2CC2C(=O)Nc2cc3cc(C4CCN(C5(C)COCC5F)CC4)c(Cl)cc3cn2)cn1` (single isomer, unassigned) [Ex-6.30, N-(7-chloro-6-(1-(4-fluoro-3-methyltetrahydrofuran-3-yl)piperidin-4-yl)isoquinolin-3-yl)-2-(1-methyl-1H-pyrazol-4-yl)cyclopropane-1-carboxamide], 1.45 nM.
To `CCC(=O)N1CCC(C(=O)Nc2cc3cc(C4(C#N)CC45CC5)ccc3cn2)CC1` (single isomer, unassigned) [Ex-1.32, N-(6-((R or S)-1-cyanospiro[2.2]pentan-1-yl)isoquinolin-3-yl)-1-propionylpiperidine-4-carboxamide] belongs 2.34 nM; to `CCC1C(C(=O)Nc2cc3cc(C4CCC(N5CC(F)C5)CC4)c(Cl)cc3cn2)C1c1cnn(C)c1` (single isomer, unassigned) [Ex-11.7, N-(7-chloro-6-(4-(3-fluoroazetidin-1-yl)cyclohexyl)isoquinolin-3-yl)-2-ethyl-3-(1-methyl-1H-pyrazol-4-yl)cyclopropane-1-carboxamide], 0.282 nM; to `CC1(N2CCC(c3cc4cc(NC(=O)C5C6CCCOC65)ncc4cc3Cl)CC2)COCC1O` (single isomer, unassigned) [Ex-4.14, N-(7-chloro-6-(1-(4-hydroxy-3-methyltetrahydrofuran-3-yl)piperidin-4-yl)isoquinolin-3-yl)-2-oxabicyclo[4.1.0]heptane-7-carboxamide], 0.0813 nM.
For the compound `CC1(N2CCC(c3cc4cc(NC(=O)C5CC56CCOCC6)ncc4cc3Cl)CC2)CCOCC1F` (single isomer, unassigned) [Ex-12.1, N-(7-chloro-6-(1-((3R,4R or 3S,4S)-3-fluoro-4-methyltetrahydro-2H-pyran-4-yl)piperidin-4-yl)isoquinolin-3-yl)-6-oxaspiro[2.5]octane-1-carboxamide], the IC50 was 41.7 nM.
With `N#CC1(c2ccc3cnc(NC(=O)C4CC4c4cccnc4)cc3c2)CC12CC2` (stereo not shown) [Ex-2.46], the IC50 was 0.851 nM.
Take `Cn1cc(C(=O)Nc2cc3cc(C4CCN(C5COCC5O)CC4)c(Cl)cc3cn2)cn1` (stereo not shown) [Ex-3.5]: the IC50 is 0.631 nM.
Take `CC1(C)CC(C(=O)Nc2cc3cc(C4(C#N)CC45CC5)ccc3cn2)CCO1` (stereo not shown) [Ex-2.58]: the IC50 is 11.2 nM.
With `Cn1ncc(C2CC2C(=O)Nc2cc3cc(C4(C#N)CC45CC5)ccc3cn2)c1C(F)(F)F` (stereo not shown) [Ex-2.47], the IC50 is 457 nM.
On to `CCC(=O)N1CCC(C(C)C(=O)Nc2cc3cc(C4(C#N)CC45CC5)ccc3cn2)CC1` (stereo not shown) [Ex-2.112], for which the IC50 was 135 nM.
Regarding `CC(C)(O)C1CC1C(=O)Nc1cc2cc(C3CCN(C4(C)CCOC4)CC3)c(Cl)cc2cn1` (stereo not shown) [Ex-2.24], the IC50 was 0.257 nM.
Under `CC1COCC1(C)N1CCC(c2cc3cc(NC(=O)C4CC45CCOCC5)ncc3cc2Cl)CC1` (single isomer, unassigned) [Ex-6.9, N-(7-chloro-6-(1-(3,4-dimethyltetrahydrofuran-3-yl)piperidin-4-yl)isoquinolin-3-yl)-6-oxaspiro[2.5]octane-1-carboxamide] stands 0.813 nM.
Take `CC1(N2CCC(c3cc4cc(NC(=O)C5CC5c5ccccn5)ncc4cc3Cl)CC2)CCOC1` (single isomer, unassigned) [Ex-6.34, N-(7-chloro-6-(1-(3-methyltetrahydrofuran-3-yl)piperidin-4-yl)isoquinolin-3-yl)-2-(pyridin-2-yl)cyclopropane-1-carboxamide]: the IC50 is 0.977 nM.
In the case of `CC1(N2CCC(c3cc4cc(NC(=O)C5C6CCOCC65)ncc4cc3Cl)CC2)COCC1F` (single isomer, unassigned) [Ex-6.43, N-(7-chloro-6-(1-(4-fluoro-3-methyltetrahydrofuran-3-yl)piperidin-4-yl)isoquinolin-3-yl)-3-oxabicyclo[4.1.0]heptane-7-carboxamide], the IC50 was 2.82 nM.
With `CC1(N2CCC(c3cc4cc(NC(=O)C5CC56CCOC6)ncc4cc3Cl)CC2)COCC1F` (single isomer, unassigned) [Ex-6.6, (R or S)-N-(7-chloro-6-(1-((3R,4R or 3S,4S)-4-fluoro-3-methyltetrahydrofuran-3-yl)piperidin-4-yl)isoquinolin-3-yl)-5-oxaspiro [2.4] heptane-1-carboxamide], the IC50 is 1.17 nM.
On to `CC1(C)CC(C(=O)Nc2cc3cc(C4CCN(C5(C)COCC5F)CC4)c(Cl)cc3cn2)CCO1` (single isomer, unassigned) [Ex-6.38, N-(7-chloro-6-(1-(4-fluoro-3-methyltetrahydrofuran-3-yl)piperidin-4-yl)isoquinolin-3-yl)-2,2-dimethyltetrahydro-2H-pyran-4-carboxamide], for which the IC50 is 0.871 nM.
To `O=C(Nc1cc2cc(C3CCN(C4COC4)CC3F)c(Cl)cc2cn1)C1CC1` (single isomer, unassigned) [Ex-14.1, N-(7-chloro-6-((3R,4R,3S,4R,3R,4S or 3S,4S)-3-fluoro-1-(oxetan-3-yl)piperidin-4-yl)isoquinolin-3-yl)cyclopropanecarboxamide] belongs 5.89 nM; to `Cn1cc(C2CC2C(=O)Nc2cc3cc(C4(C#N)CC45CC5)ccc3cn2)cn1` (single isomer, unassigned) [Ex-1.24, (1R,2R or 1S,2S)-N-(6-((R or S)-1-cyanospiro[2.2]pentan-1-yl)isoquinolin-3-yl)-2-(1-methyl-1H-pyrazol-4-yl)cyclopropane-1-carboxamide], 0.0813 nM; to `N#CC1(c2ccc3cnc(NC(=O)C4CC45CCOC5)cc3c2)CC12CC2` (stereo not shown) [Ex-2.65], 25.7 nM.
Take `CCC1C(C(=O)Nc2cc3cc(C4CC(C#N)C4)c(Cl)cc3cn2)C1c1cnn(C)c1` (stereo not shown) [Ex-9.17, N-(7-chloro-6-(3-cyanocyclobutyl)isoquinolin-3-yl)-2-ethyl-3-(1-methyl-1H-pyrazol-4-yl)cyclopropane-1-carboxamide]: the IC50 was 33.1 nM.
As to `O=C(Nc1cc2cc(C3CCC(N4CC(F)(F)C4)CC3)c(Cl)cc2cn1)C1CC1c1ccccn1` (single isomer, unassigned) [Ex-5.5, N-(7-chloro-6-(4-(3,3-difluoroazetidin-1-yl)cyclohexyl)isoquinolin-3-yl)-2-(pyridin-2-yl)cyclopropane-1-carboxamide], the IC50 is 0.275 nM.
For `Cn1cc(C(C)(C)C(=O)Nc2cc3cc(C4CCN(C5(C)COCC5F)CC4)c(Cl)cc3cn2)cn1` (single isomer, unassigned) [Ex-6.54, N-(7-chloro-6-(1-(4-fluoro-3-methyltetrahydrofuran-3-yl)piperidin-4-yl)isoquinolin-3-yl)-2-methyl-2-(1-methyl-1H-pyrazol-4-yl)propenamide], the IC50 is 27.5 nM.
Consider `CC1(C)CCC(C(=O)Nc2cc3cc(C4CCN(C5(C)COCC5O)CC4)c(Cl)cc3cn2)CO1` (single isomer, unassigned) [Ex-4.26, N-(7-chloro-6-(1-(4-hydroxy-3-methyltetrahydrofuran-3-yl)piperidin-4-yl)isoquinolin-3-yl)-6,6-dimethyltetrahydrofuran-2H-pyran-3-carboxamide], for which the IC50 was 0.427 nM.
For the compound `O=C(Nc1cc2cc(C3C4CCOCC43)c(Cl)cc2cn1)C1CC12CCOCC2` (single isomer, unassigned) [Ex-9.23, N-(6-(3-oxabicyclo[4.1.0]heptan-7-yl)-7-chloroisoquinolin-3-yl)-6-oxaspiro[2.5]octane-1-carboxamide], the IC50 was 19.1 nM.
As to `N#CC1(c2ccc3cnc(NC(=O)C4CC(OC(F)F)C4)cc3c2)CC12CC2` (single isomer, unassigned) [Ex-2.7], the IC50 is 10.5 nM.
Under `CC1C(C(=O)Nc2cc3cc(C4CCN(C5(C)COCC5O)CC4)c(Cl)cc3cn2)C1c1ccccn1` (single isomer, unassigned) [Ex-4.53, N-(7-chloro-6-(1-(4-hydroxy-3-methyltetrahydrofuran-3-yl)piperidin-4-yl)isoquinolin-3-yl)-2-methyl-3-(pyridin-2-yl)cyclopropane-1-carboxamide] stands 3.98 nM; under `O=C(Nc1cc2cc(C3CCN(C4COC4)CC3)c(Cl)cc2cn1)C1CCC1` [Ex-7.4, N-(7-chloro-6-(1-(oxetan-3-yl)piperidin-4-yl)isoquinolin-3-yl)cyclobutanecarboxamide], 5.89 nM; under `N#CC1(c2ccc3cnc(NC(=O)C4CCN(CC(F)(F)F)C4)cc3c2)CC12CC2` (stereo not shown) [Ex-2.43], 31.6 nM.
Regarding `CCC1C(C(=O)Nc2cc3cc(C4CC45CC5)c(Cl)cc3cn2)C1c1cnn(C)c1` (stereo not shown) [Ex-2.98], the IC50 is 15.5 nM.
Turning to `CC(C)(O)C1CC1C(=O)Nc1cc2cc(C3CCN(C4(C)CCOC4)CC3)c(Cl)cc2cn1` (single isomer, unassigned) [Ex-6.15, N-(7-chloro-6-(1-(3-methyltetrahydrofuran-3-yl)piperidin-4-yl)isoquinolin-3-yl)-2-(2-hydroxypropan-2-yl)cyclopropane-1-carboxamide], the IC50 is 0.115 nM.

These data come from patent US20240398784A1, “C-LINKED ISOQUINOLINE AMIDES AS LRRK2 INHIBITORS, PHARMACEUTICAL COMPOSITIONS, AND USES THEREOF” (Merck Sharp & Dohme LLC, priority 2021, published 2024).
